Tests used:
[1] = tested on: human lung cancer A549; test: Tumor-inhibitory effect on A549 transplanted to nude mouse; format: in vivo, nude mice; conditions: 100 mg/kg ig twice a day, 3 weeks, p-Toluenesulfonate
Protocol: (§1) The diameters of the transplanted tumors of nude mice were measured with a vernier caliper. The animals were grouped randomly when the tumors grew to a size of 80-100 mm^3. […] The positive control drug MMC (Mitomycin) was intravenously administered once on the first day with a dose of 5 mg/kg. The negative control group were administered with 0.5% CMC-Na (Carboxymethyl Cellulose Sodium) with a dose of 0.2 mL/per mouse. The long axis (a) and the short axis (b) of the tumors were measured twice every week and the nude mice were weighed at the same time. […] RTV=Vt/V0, wherein V0 represents the tumor volume measured at the grouping time of administration, and Vt represents the tumor volume measured each time). The relative tumor proliferation rate T/C (%) was chosen as the index to evaluate the anti-tumor activity, which can be calculated according to the following formula: T/C (%)=(TRTV/CRTV)×100 TRTV: RTV of the treated group; CRTV: RTV of the negative control group The standard for evaluating the effectiveness: […]

[2] = Toxicity test of long-term administration; format: in vivo; conditions: SD rats, ig, 20, 50, 100, 500 or 800 mg/(kg·day), four weeks
Protocol: 80 healthy SD rats, male and weighed 200˜250 g, were grouped into 16 groups randomly, and were each intragastrically administered with Form A, B or C of the p-toluenesulfonate of the compound of formula (I) or a blank solvent (Five test groups with the dose of 20, 50, 100, 500 or 800 mg/(kg·day) and a solvent control group were set).

[3] = tested on: human ovarian cancer SKOV-3; test: Tumor-inhibitory effect on SKOV-3 transplanted to nude mouse; format: in vivo, BALB/cA nude mouse; conditions: for relative tumor proliferation rate T/C: SKOV-3, 3 weeks, p-Toluenesulfonate; for relative tumor proliferation rate T/C / tumor inhibitory effects: 100 mg/kg ig twice a day; for tumor inhibitory effects: summary in words for SKOV-3, Calu-3 and A549 models
Protocol: A tumor SKOV-3 in vigorous growth period was selected and cut into several uniform bits of a size of about 1.5 mm^3, which was inoculated subcutaneously to the right armpit of the BALB/cA nude mice using trocar under sterile conditions. The diameters of the transplanted tumors of nude mice were measured with a vernier caliper. The animals were grouped randomly when the tumors grew to a size of 80-100 mm^3. The tested animal group were intragastrically administrated through mouth as mentioned above once a day for 3 weeks continuously. The positive control drug MMC (Mitomycin) was intravenously administered once on the first day with a dose of 5 mg/kg. The negative control group were administered with 0.5% CMC-Na (Carboxymethyl Cellulose Sodium) with a dose of 0.2 mL/per mouse. The long axis (a) and the short axis (b) of the tumors were measured twice every week and the nude mice were weighed at the same time. According to the formula V=ab^2/2, the tumor volume (mm^3) could be calculated, based on which the relative tumor volume (RTV) was calculated (Calculation Formula: RTV=Vt/V0, wherein V0 represents the tumor volume measured at the grouping time of administration, and Vt represents the tumor volume measured each time). The relative tumor proliferation rate T/C (%) was chosen as the index to evaluate the anti-tumor activity, which can be calculated according to the following formula: T/C (%)=(TRTV/CRTV)×100
TRTV: RTV of the treated group; CRTV: RTV of the negative control group
V0 represents the tumor volume before the administration, and V21 represents the tumor volume after 3 weeks of continuous administration.
(§2) According to the experimental method mentioned above, the tumor-bearing nude mice, into which the human ovarian cancer SKOV-3, the human lung cancer Calu-3, and the human lung cancer A549 were transplanted respectively, were intragastrically administrated with Form B (100 mg/kg) of the present invention through mouth twice a day for 3 weeks continuously.
as §2, with “SKQV-3,” for “SKOV-3,”, “C” for “B”

[4] = Light stability test (illumination 4500 lx±500 lx); format: physicochemical; conditions: p-Toluenesulfonate; for light stability: 4500 lx±500 lx, one month, in words; for Purity (%): illumination 4500 lx±500 lx
Text: The purity of Form A was detected at 0, 10 and 30 days, which was based to deduce to the light stability of Form A. The light stability of Form B and Form C were also deduced by this method.

[5] = Thermal stability test (storage at 60° C.); format: physicochemical; conditions: p-Toluenesulfonate; for thermal stability: 60° C., one month, in words; for Purity (%): stored at 60° C.
Text: The purity of Form A was detected at 0, 10 and 30 days, which was based to deduce the thermal stability of Form A. The thermal stability of Form B and Form C were also deduced by this method.

[6] = Drug absorption in SD rat, intragastric administration; format: in vivo, SD rat (Sprague Dawley rat); conditions: ig, 30 mg/kg, plasma, p-Toluenesulfonate
Protocol: Intragastric administration (ig): 16 healthy SD rats, male, weighed 200˜250 g, and grouped into 4 groups randomly, were each administered intragastrically with a drug:the compound (21.68 mg/kg) prepared according to Example 1, Form A, B or C of p-toluenesulfonate of the compound (30 mg/kg). The blood samples were collected at 0.5, 1.0, 1.5, 2.0, 3.0, 5.0, 7.0, 9.0, 12 and 24 hours after administration, which were then isolated to prepare the plasma. The concentration of the drug in the plasma was determined by means of liquid chromatography/mass spectrometry, and the concentration-time curve was obtained.

[7] = Hygroscopicity test (high moisture environment of 92.5%); format: physicochemical; conditions: p-Toluenesulfonate; for stability under the environment of high moisture: 92.5% moisture, one month, in words; for Purity (%): high moisture environment of 92.5%
Text: The purity of Form A was detected at 0, 10 and 30 days, which was based to deduce the hygroscopicity of Form A. The hygroscopicities of Form B and Form C were also deduced by this method.

[8] = tested on: human lung cancer Calu-3; test: Tumor-inhibitory effect on Calu-3 transplanted to nude mouse; format: in vivo, nude mice; conditions: 100 mg/kg ig twice a day, 3 weeks, p-Toluenesulfonate
Protocol: as §1

[9] = tested on: human epidermatoid squamous cancer A431; test: Tumor-inhibitory effect on A431 transplanted to nude mouse; format: in vivo, BALB/cA nude mouse; conditions: for Weight of animals (g) (without tumor) / Tumor inhibition rate % / Weight of tumors (g) x ± SD: 13 days; for Tumor inhibition rate %: by tumor weight; for Weight of tumors (g) x ± SD: killed 23 days after inoculation
Protocol: A well-developed solid tumor A431 was selected and cut into several uniform bits of a size of 2-3 mm under sterile conditions, with one bit being inoculated subcutaneously to the right armpit of each of the BALB/cA nude mice using trocar. 7 days after inoculation, the mice were grouped randomly and were intragastrically administrated through mouth for 13 days continuously. The long axis (a) and the short axis (b) of the tumors were measured with a vernier caliper every 4 days. According to the formula V=ab^2/2, the tumor volume (mm^3) could be calculated. The tested animals were neck-off killed 23 days after the inoculation, and anatomized to obtain the tumors. The tumors were weighed, and the tumor inhibition rate was calculated.

[10] = tested on: human epidermoid squamous cancer cell A431; conditions: from WO 2007/082434; in words; cited from earlier work
[11] = tested on: human breast cancer cell BT-474; conditions: from WO 2007/082434; in words; cited from earlier work
[12] = tested on: human epidermoid squamous cancer cell A431; conditions: from WO 2007/082434; in words; cited from earlier work; remark: listed apart in the source
[13] = molecular target: Erb-B2 kinase (Homo sapiens, UniProt P04626); conditions: in vitro; from WO 2007/082434; in words; cited from earlier work
Sequence of Erb-B2 kinase (P04626 23-1255): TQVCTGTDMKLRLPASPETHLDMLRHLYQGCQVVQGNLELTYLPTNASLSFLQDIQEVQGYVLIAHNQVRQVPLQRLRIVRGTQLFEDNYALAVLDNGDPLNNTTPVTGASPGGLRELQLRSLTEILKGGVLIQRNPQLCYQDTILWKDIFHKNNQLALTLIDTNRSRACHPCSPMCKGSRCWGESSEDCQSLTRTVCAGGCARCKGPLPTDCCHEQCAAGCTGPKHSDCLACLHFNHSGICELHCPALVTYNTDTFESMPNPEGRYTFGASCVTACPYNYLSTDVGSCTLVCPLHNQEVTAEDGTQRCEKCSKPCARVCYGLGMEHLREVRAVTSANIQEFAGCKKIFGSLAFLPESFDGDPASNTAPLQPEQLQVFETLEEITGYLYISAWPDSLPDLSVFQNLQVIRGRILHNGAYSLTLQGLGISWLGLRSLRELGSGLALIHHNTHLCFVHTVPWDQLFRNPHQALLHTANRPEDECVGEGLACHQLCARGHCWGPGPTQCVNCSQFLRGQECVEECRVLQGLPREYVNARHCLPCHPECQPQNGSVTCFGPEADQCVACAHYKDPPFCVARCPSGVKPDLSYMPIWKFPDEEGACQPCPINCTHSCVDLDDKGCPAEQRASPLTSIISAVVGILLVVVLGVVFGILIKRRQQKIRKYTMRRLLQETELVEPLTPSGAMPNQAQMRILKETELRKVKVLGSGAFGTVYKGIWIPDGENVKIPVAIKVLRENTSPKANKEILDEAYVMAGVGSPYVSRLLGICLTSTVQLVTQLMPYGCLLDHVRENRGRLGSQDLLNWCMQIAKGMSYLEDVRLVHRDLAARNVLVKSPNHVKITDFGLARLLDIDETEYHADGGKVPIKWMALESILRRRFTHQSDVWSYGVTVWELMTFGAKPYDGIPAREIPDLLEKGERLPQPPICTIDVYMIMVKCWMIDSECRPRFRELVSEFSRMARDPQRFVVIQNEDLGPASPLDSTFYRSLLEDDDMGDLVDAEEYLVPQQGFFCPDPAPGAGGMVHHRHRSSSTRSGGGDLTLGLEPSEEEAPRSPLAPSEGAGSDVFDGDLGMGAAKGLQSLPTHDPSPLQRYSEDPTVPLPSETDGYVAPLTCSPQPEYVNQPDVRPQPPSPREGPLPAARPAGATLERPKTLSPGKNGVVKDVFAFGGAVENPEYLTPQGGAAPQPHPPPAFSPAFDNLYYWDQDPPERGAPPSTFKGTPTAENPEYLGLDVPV

Row | light stability [4] | Purity (%) ([4]; detect time 0) | Purity (%) ([4]; detect time 10) | Purity (%) ([4]; detect time 30) | thermal stability [5] | Purity (%) ([5]; detect time day 0) | Purity (%) ([5]; detect time day 10) | Purity (%) ([5]; detect time day 30) | stability under the environment of high moisture [7] | Purity (%) ([7]; detect time 0) | Purity (%) ([7]; detect time 10) | Purity (%) ([7]; detect time 30) | Compound | relative tumor proliferation rate T/C [1] | food intake [2] | physical signs, appearance, behaviors, activities or shape of dejecta [2] | weight and weight increase of the rats [2] | relative tumor proliferation rate T/C [3] | tumor inhibitory effects [3] | relative tumor proliferation rate T/C [8] | also measured
1 | excellent | 99.26% | 99.26% | 99.24% | excellent | 99.26% | 99.21% | 99.11% | very stable | 99.26% | 99.25% | 99.24% | C=CC(=O)Nc1ccc2ncnc(Nc3ccc(OCc4cccc(F)c4)c(Cl)c3)c2c1.Cc1ccc(S(=O)(=O)O)cc1 [Form B, N-{4-[3-chloro-4-(3-fluoro-benzyloxy)phenylamino]-quinazolin-6-yl}-acrylamide p-Toluenesulfonate] | 56.3% | normal | no abnormality | basically similar to the solvent control group | 28.5% | significant tumor inhibitory effects | 35.1% | AUC0-t [6]: 978 ng·h/mL
2 | good | 98.64% | 98.16% | 97.24% | excellent | 98.64% | 98.64% | 98.64% | very stable | 98.64% | 98.62% | 98.62% | C=CC(=O)Nc1ccc2ncnc(Nc3ccc(OCc4cccc(F)c4)c(Cl)c3)c2c1.Cc1ccc(S(=O)(=O)O)cc1 [Form A, N-{4-[3-chloro-4-(3-fluoro-benzyloxy)phenylamino]-quinazolin-6-yl}-acrylamide p-Toluenesulfonate] |  | normal | no abnormality | basically similar to the solvent control group |  |  |  | tumor inhibitory effect ([3]; SKOV-3 nude mouse, ig once a day, in words): significant tumor inhibitory effect; Weight of animals (g) (without tumor) ([9]; 25 mg/kg ig, A431 nude mouse): 21.58 ± 2.18 g; Tumor inhibition rate % ([9]; 25 mg/kg ig): 29.99%; Weight of tumors (g) x ± SD ([9]; 25 mg/kg ig): 0.79 ± 0.20 g; Weight of animals (g) (without tumor) ([9]; 50 mg/kg ig, A431 nude mouse): 22.87 ± 3.96 g; Tumor inhibition rate % ([9]; 50 mg/kg ig): 38.67%; Weight of tumors (g) x ± SD ([9]; 50 mg/kg ig): 0.69 ± 0.17 g; Weight of animals (g) (without tumor) ([9]; 100 mg/kg ig, A431 nude mouse): 22.13 ± 1.83 g; Tumor inhibition rate % ([9]; 100 mg/kg ig): 43.63%; Weight of tumors (g) x ± SD ([9]; 100 mg/kg ig): 0.64 ± 0.23 g; inhibitory effect on the tumor ([9]; A431 nude mouse, ig, in words): significant inhibitory effect
3 | good | 99.03% | 98.54% | 98.42% | good | 99.03% | 97.08% | 97.55% | comparatively stable | 99.03% | 98.27% | 98.08% | C=CC(=O)Nc1ccc2ncnc(Nc3ccc(OCc4cccc(F)c4)c(Cl)c3)c2c1.Cc1ccc(S(=O)(=O)O)cc1 [Form C, N-{4-[3-chloro-4-(3-fluoro-benzyloxy)phenylamino]-quinazolin-6-yl}-acrylamide p-Toluenesulfonate] | 58.7% | normal | no abnormality | basically similar to the solvent control group | 23.2% | significant tumor inhibitory effects | 39.4% | 
4 |  |  |  |  |  |  |  |  |  |  |  |  | C=CC(=O)Nc1ccc2ncnc(Nc3ccc(OCc4cccc(F)c4)c(Cl)c3)c2c1 [Compound of formula (I), N-{4-[3-chloro-4-(3-fluoro-benzyloxy)phenylamino]-quinazolin-6-yl}-acrylamide] |  |  |  |  |  |  |  | inhibiting the growth of A431 cells [10]: relatively good effect; inhibiting the growth of BT-474 cells [11]: relatively good effect; tumor-inhibiting effect on A431 implanted into a nude mouse [12]: significant tumor-inhibiting effect; inhibitory activity against Erb-B2 kinase [13]: excellent inhibitory activity

Reference: patent publication US9102629B2, “Polymorphic forms of 4-phenylamine quinazoline derivative, the preparation method and uses thereof” (priority 2008, dated 2015)
